Test results from patent US20090023684A1, “FLUID FOR PERITONEAL DIALYSIS” (priority 2005, published 2009).

Test: Body fluid removability of DF using dialysis tube (Experiment 2)
Conditions: similar experiment, compared with the CNN results; data omitted
Experimental: Experiments, examining the effects of a cyclic tetrasaccharide on the body fluid removability of DF, were carried out using dialysis tube as follows:
According to the compositions shown in Table 2, DFs comprising glucose or CNN are prepared, respectively. Into a dialysis tube (Molecular weight cut off: 15,000 daltons; diameter: 16 mm; length: 70 mm), 1.5 milliliters each of the DF was poured and sealed using a closer, and then put into one liter of a dialyzing solution, prepared by admixed sodium chloride and dextran (Molecular weight: 60,000 to 90,000 daltons; commercialized by Wako Pure Chemical Industries Ltd., Osaka, Japan) with purified water to give concentrations of 9 g/L and 6 g/L, respectively, for dialysis. The fluid volumes in the dialysis tube at one to 14 hours after the start of dialysis were examined by measuring the weight of the tube. In the experiment, three dialysis tubes were used for a kind of DF. The changes of fluid volumes in the dialysis tubes were measured by calculating the average of the results of three tubes expressed as relative values using each fluid volume at the start of dialysis as 100.

## OC[C@H]1O[C@@H]2OC[C@H]3O[C@H](O[C@H]4[C@H](O)[C@@H](O)[C@@H](OC[C@H]5O[C@H](O[C@H]1[C@H](O)[C@H]2O)[C@H](O)[C@@H](O)[C@@H]5O)O[C@@H]4CO)[C@H](O)[C@@H](O)[C@@H]3O [CMM, cyclomaltosylmaltose]
  Fluid volume increase in dialysis tube with CMM used instead of CNN in Table 2: almost the same results
